Test results as given in article PMC7724566, “Prospects for Clinical Development of Stat5 Inhibitor IST5-002: High Transcriptomic Specificity in Prostate Cancer and Low Toxicity In Vivo” (Cancers, 2020).

Experiments:
[1] = system: athymic nude mice; experiment: Chronic toxicity study (28 days), plasma biochemistry; format: in vivo; conditions: i.p. 28 days; for A-G Ratio / ALT / AST / Albumin / Alk.Ptase / Bile Acid / Chol / TBIL / Globulin / BUN: plasma; for Globulin: in g/dL (unit assumed); for BUN: in mg/dL (unit assumed)
Experimental: Forty athymic nude mice (8 weeks) (Crl:NU/NCr-Foxn1n) of either sex (20 males and 20 females) were randomized into four groups (n = 5/group) for either sex. The randomization of the mice was carried out based on their baseline body weight measured on day 0. IST5 or vehicle (0.3% hydroxypropyl cellulose, (Sigma-Aldrich, MO, St. Louis, MO, USA) were administered to the mice by i.p. injection for 28 days. The mice were observed daily for behavior, and body weights were measured on every 3rd day throughout the 28-day experimental protocol. The monitoring was started immediately after the compound administration and continued for 2 h for any acute signs of toxicity. In addition, the mice were monitored daily for any signs of toxicity using several clinical parameters. The clinical signs that were taken into consideration were as follows: 1) weight loss: rapid weight loss ([…]) or, weight loss of extended period time ([…]); 2) rapid growth of mass or masses; 3) paralysis or paresis (partial paralysis); 4) frank bleeding from any orifice; 5) lesions interfering with eating or drinking; 6) diarrhea (non-formed/soft stool or diarrhea liquid stool); 6) loss of body temperature; 7) appearance: rough coat, porphyrin staining (red or brown staining around eyes, nose, or along front paws, distended abdomen, alopecia; 8) eyes: ocular discharge, pale appearance, distinct icterus (jaundice or yellowing of the eyes); 9) respiration: coughing or wheezing, rales or crackling in the lungs, respiration increased or labored; 10) behavioral: hunched posture, huddling in a corner, lethargy, avoiding cagemate(s), head tilt, tremors (head, body, tail), spasticity (stiff muscles), ataxia (loss of voluntary muscle movement), seizures or convulsions, circling, persistent self-induced trauma, chattering or vocalizations, loss of startle response, loss of righting reflex. The clinical chemistry parameters measured were the same as those used for the acute toxicity study.

[2] = system: Stat5; experiment: Ligand-induced Stat5 dimerization, two cell-based assays (summary); design: species or system human; conditions: read-out: IC50, suppression of ligand-induced Stat5 dimerization; both cell-based dimerization assays
From the text: Down-regulation of Stat5 phosphorylation by IST5 can theoretically be caused by IST5 blocking Stat5 monomer docking to the activated receptor-Jak2 complex (Figure 1) and/or by IST5 inhibition of Jak2 kinase activity. […] To further investigate whether IST5 is able to disrupt dimerization of Stat5 molecules, we employed two separate cell-based assays. […] Because both phosphorylation and dimerization of Stat5 were inhibited at similar concentrations of IST5, it is difficult to determine whether disruption of Stat5 dimerization by IST5 is caused by suppression of Stat5 phosphorylation or a direct effect of IST5 in hindering Stat5 dimer-formation or both events occurring at the same time in the cell. However, it is known that heteromolecular interactions are easier to disrupt than interactions between two Stat5 monomers implying that the primary mechanism of action of IST5 may be suppression of Stat5 docking to the receptor-kinase complex. It is important to note that bypassing tyrosine kinases responsible for Stat5 phosphorylation by utilizing direct Stat5 inhibitor would be advantageous for therapy development for Stat5-regulated cancers because targeting Stat5 directly is likely to cause less off-target side effects than targeting kinases or cell surface receptors.

[3] = system: C57BL/6j mice; experiment: Sub-chronic toxicity study (10 days), hematology; format: in vivo; conditions: daily i.p. 10 days, blood
Experimental: The sub-chronic toxicity study (10 days) was carried out in C57BL/6J mice (8 weeks) (stock 000664) (n = 10/dose group 5 of each sex). IST5 was administered daily (0, 10, 30 and 100 mg/kg) via i.p. injection. Vehicle (0 mg/kg) group mice received a single i.p. injection of 0.3% hydroxypropyl cellulose. Plasma samples were analyzed for aspartate aminotransferase (AST), alanine aminotransferase (ALT), sorbitol dehydrogenase (SDH), alkaline phosphatase (ALP), γ-lutamyltransferase (GGT), lactate dehydrogenase (LDH), bilirubin (TBIL), protein (TP), glucose (GLU), blood urea nitrogen (BUN), creatinine (CREAT), and electrolytes (Na, K, Cl, Ca, CO2) (Marshfield Labs, WI, USA). A detailed hematological analysis was carried out on the sub-mandibular blood samples of mice collected at the end of the protocol and analyzed for white blood cells, red blood cells, hemoglobin, lymphocyte counts, monocytes, eosinophils and granulocytes. Brain, liver, heart, kidney and spleen were harvested, weighed and fixed in 10% buffered formalin and processed for histopathological analysis. In histopathological analysis, gross morphology and ultra-structural change were assessed. The clinical chemistry parameters measured were the same as those used for the acute toxicity study.

[4] = system: PC xenograft tumors; design: method as in PMID 18316550, PMID 23942095, PMID 26362718, PMID 20966544, PMID 20233708; conditions: cited from earlier work

Q: What does the source list for O=P(O)(O)OCC1OC(n2cnc3c(NCc4ccccc4)ncnc32)C(O)C1O (stereo not drawn) [IST5]?
A: BW ([1]; 10 mg/kg): 22.5 ± 1.1 gm; HCT ([1]; 10 mg/kg): 0.43 ± 0.02 L/L; A-G Ratio ([1]; 10 mg/kg): 1.93 ± 0.08; ALT ([1]; 10 mg/kg): 50.4 ± 3.71 U/L; AST ([1]; 10 mg/kg): 329.9 ± 30.9 U/L; Albumin ([1]; 10 mg/kg): 2.69 ± 0.05 g/dL; Alk.Ptase ([1]; 10 mg/kg): 51.3 ± 0.72 U/L; Bile Acid ([1]; 10 mg/kg): 21.0 ± 12.7 µmol/dL; Chol ([1]; 10 mg/kg): 65.0 ± 2.09 mg/dL; TBIL ([1]; 10 mg/kg): 0.26 ± 0.02 mg/dL; Globulin ([1]; 10 mg/kg): 1.41 ± 0.04; BUN ([1]; 10 mg/kg): 20.5 ± 0.82; BW ([1]; 30 mg/kg): 23.5 ± 0.6 gm; HCT ([1]; 30 mg/kg): 0.45 ± 0.01 L/L; A-G Ratio ([1]; 30 mg/kg): 1.9 ± 0.11; ALT ([1]; 30 mg/kg): 45.2 ± 3.76 U/L; AST ([1]; 30 mg/kg): 336 ± 57.1 U/L; Albumin ([1]; 30 mg/kg): 2.74 ± 0.07 g/dL; Alk.Ptase ([1]; 30 mg/kg): 53.0 ± 1.93 U/L; Bile Acid ([1]; 30 mg/kg): 2.39 ± 0.32 µmol/dL; Chol ([1]; 30 mg/kg): 70.3 ± 1.38 mg/dL; TBIL ([1]; 30 mg/kg): 0.21 ± 0.01 mg/dL; Globulin ([1]; 30 mg/kg): 1.47 ± 0.07; BUN ([1]; 30 mg/kg): 25 ± 1.32; BW ([1]; 100 mg/kg): 23.5 ± 0.9 gm; HCT ([1]; 100 mg/kg): 0.43 ± 0.03 L/L; ALT ([1]; 100 mg/kg): 50.9 ± 3.83 U/L; AST ([1]; 100 mg/kg): 327 ± 4.03 U/L; Albumin ([1]; 100 mg/kg): 2.74 ± 0.04 g/dL; Alk.Ptase ([1]; 100 mg/kg): 53.3 ± 1.76 U/L; Bile Acid ([1]; 100 mg/kg): 2.98 ± 0.29 µmol/dL; Chol ([1]; 100 mg/kg): 75.9 ± 2.06 mg/dL; BUN ([1]; 100 mg/kg): 23.0 ± 0.07; IC50 [2]: 1000 to 1300 nM; EOS ([3]; 10 mg/kg): 3.88 ± 1.0%; GRA ([3]; 10 mg/kg): 25.9 ± 2.3%; HGB ([3]; 10 mg/kg): 19.8 ± 1.4 g/dL; LYM ([3]; 10 mg/kg): 67.8 ± 2.0%; MON ([3]; 10 mg/kg): 6.29 ± 0.75%; PLT ([3]; 10 mg/kg): 614 ± 119 10^3/µL; RBC ([3]; 10 mg/kg): 10.59 ± 0.2 M/uL; WBC ([3]; 10 mg/kg): 4.18 ± 0.65 K/uL; EOS ([3]; 30 mg/kg): 5.29 ± 1.35%; GRA ([3]; 30 mg/kg): 29.7 ± 6.7%; HGB ([3]; 30 mg/kg): 18.2 ± 2.5 g/dL; LYM ([3]; 30 mg/kg): 63.23 ± 6.7%; MON ([3]; 30 mg/kg): 7.06 ± 0.5%; PLT ([3]; 30 mg/kg): 553 ± 154 10^3/µL; RBC ([3]; 30 mg/kg): 9.61 ± 0.31 M/uL; WBC ([3]; 30 mg/kg): 3.76 ± 0.55 K/uL; growth of PC xenograft tumors in mice in vivo [4]: block growth
